Assay results: PubChem BioAssay AID248 (DTP/NCI, 2004)
Several values for one entry are separate records, joined by “and”; a condition that tells them apart may be missing. Equal values may be shown once. Toxic doses and inconclusive results are not listed.

System: L1210 leukemia ip in BDF1 mice, survival T/C
Test: NCI In Vivo Anticancer Drug Screen. Data for tumor model L1210 Leukemia (intraperitoneal) in B6D2F1 (BDF1) mice
Details: endpoint: mean survival time, higher = longer survival
Summary of the method: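 Mice bearing the transplanted tumor received compound or vehicle. Survival of the treated group was divided by that of the vehicle-treated control group to give the ratio.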

[1] = dose: 50.0 mg/kg/injection, schedule: Q04DX003 (ip), vehicle: Klucel (hydroxypropylcellulose) (HPC)
[2] = dose: 100.0 mg/kg/injection, schedule: Q01DX009 (ip), vehicle: Klucel (hydroxypropylcellulose) (HPC)
[3] = dose: 100.0 mg/kg/injection, schedule: Q04DX003 (ip), vehicle: Klucel (hydroxypropylcellulose) (HPC)
[4] = dose: 200.0 mg/kg/injection, schedule: Q01DX009 (ip), vehicle: Klucel (hydroxypropylcellulose) (HPC)
[5] = dose: 200.0 mg/kg/injection, schedule: Q04DX003 (ip), vehicle: Klucel (hydroxypropylcellulose) (HPC)
[6] = dose: 400.0 mg/kg/injection, schedule: Q01DX009 (ip), vehicle: Klucel (hydroxypropylcellulose) (HPC)
[7] = dose: 400.0 mg/kg/injection, schedule: Q04DX003 (ip), vehicle: Klucel (hydroxypropylcellulose) (HPC)
[8] = dose: 100.0 mg/kg/injection, schedule: Q01DX001 (ip), vehicle: saline
[9] = dose: 200.0 mg/kg/injection, schedule: Q01DX001 (ip), vehicle: saline
[10] = dose: 100.0 mg/kg/injection, schedule: Q04DX003 (ip), vehicle: saline with Tween-80
[11] = dose: 200.0 mg/kg/injection, schedule: Q04DX003 (ip), vehicle: saline with Tween-80
[12] = dose: 100.0 mg/kg/injection, schedule: Q01DX009 (ip), vehicle: saline
[13] = dose: 200.0 mg/kg/injection, schedule: Q01DX009 (ip), vehicle: saline
[14] = dose: 75.0 mg/kg/injection, schedule: Q01DX001 (ip), vehicle: saline
[15] = dose: 150.0 mg/kg/injection, schedule: Q01DX001 (ip), vehicle: saline
[16] = dose: 100.0 mg/kg/injection, schedule: Q04DX003 (ip), vehicle: saline
[17] = dose: 200.0 mg/kg/injection, schedule: Q04DX003 (ip), vehicle: saline
[18] = dose: 100.0 mg/kg/injection, schedule: Q01DX001 (ip), vehicle: Klucel (hydroxypropylcellulose) (HPC)
[19] = dose: 100.0 mg/kg/injection, schedule: Q04DX002 (ip), vehicle: saline with Tween-80
[20] = dose: 100.0 mg/kg/injection, schedule: Q01DX009 (ip), vehicle: saline with Tween-80
[21] = dose: 200.0 mg/kg/injection, schedule: Q01DX009 (ip), vehicle: saline with Tween-80

CCc1cccc2ccccc12
T/C [1]: 100 % of control
T/C [2]: 90 % of control
T/C [3]: 98 % of control
T/C [4]: 92 % of control
T/C [5]: 107 % of control
T/C [6]: 96 % of control
T/C [7]: 96 % of control

O=C1C=C2C=CC3CC2(O1)C1CCCCN31 (configuration not stated)
T/C (dose: 10.0 mg/kg/injection, schedule: Q01DX001 (ip), vehicle: saline): 105 % of control
T/C (dose: 20.0 mg/kg/injection, schedule: Q01DX001 (ip), vehicle: saline): 100 % of control
T/C [8]: 105 % of control and 102 % of control
T/C [9]: 104 % of control and 102 % of control

C1CC2CN(CCCN3CCOCC3)C(C1)O2 (configuration not stated)
T/C (dose: 50.0 mg/kg/injection, schedule: Q01DX001 (ip), vehicle: saline): 95 % of control
T/C [8]: 101 % of control
T/C [9]: 101 % of control
T/C (dose: 400.0 mg/kg/injection, schedule: Q01DX001 (ip), vehicle: saline): 97 % of control

O=C1c2ccccc2C(C(O)(C(F)(F)F)C(F)(F)F)c2ccccc21
T/C [10]: 92 % of control
T/C [11]: 97 % of control

O=C(O)/C=C/C(=O)Nc1cc(Cl)cc2c1-c1c(Cl)cc(Cl)cc1C2=O
T/C (dose: 50.0 mg/kg/injection, schedule: Q01DX009 (ip), vehicle: saline): 94 % of control
T/C [12]: 94 % of control
T/C [3]: 98 % of control
T/C [13]: 96 % of control
T/C [5]: 98 % of control

CCN(CC)CCCNC(c1ccc(OC)cc1)C(Cl)(Cl)Cl (configuration not stated)
T/C [14]: 90 % of control
T/C [15]: 93 % of control

CCCCOC(=O)CC1CCCN1C (configuration not stated)
T/C [16]: 110 % of control
T/C [17]: 101 % of control

CC1(CCN2CCC3(CC2)C(=O)NCN3c2ccccc2)Oc2ccccc2O1
T/C [3]: 104 % of control
T/C [5]: 111 % of control
T/C [7]: 93 % of control

CC(C)C1CC2CCC3C(C)(C(=O)O)CCCC3(C)C2CC1CO (configuration not stated)
T/C [10]: 92 % of control
T/C [11]: 92 % of control
T/C (dose: 400.0 mg/kg/injection, schedule: Q04DX003 (ip), vehicle: saline with Tween-80): 93 % of control

O=C(O)CCCC1CCc2ccccc2C1 (configuration not stated)
T/C [18]: 104 % of control
T/C (dose: 200.0 mg/kg/injection, schedule: Q01DX001 (ip), vehicle: Klucel (hydroxypropylcellulose) (HPC)): 102 % of control
T/C (dose: 400.0 mg/kg/injection, schedule: Q01DX001 (ip), vehicle: Klucel (hydroxypropylcellulose) (HPC)): 103 % of control

N#CCc1nc2ccccc2[nH]1
T/C (dose: 50.0 mg/kg/injection, schedule: Q01DX009 (ip), vehicle: Klucel (hydroxypropylcellulose) (HPC)): 97 % of control
T/C [1]: 101 % of control
T/C [18]: 102 % of control
T/C [2]: 98 % of control
T/C [3]: 98 % of control
T/C [4]: 88 % of control
T/C [5]: 101 % of control

N#CCc1ccc(N=Cc2ccc([N+](=O)[O-])s2)cc1
T/C (dose: 25.0 mg/kg/injection, schedule: Q04DX003 (ip), vehicle: saline with Tween-80): 102 % of control
T/C (dose: 50.0 mg/kg/injection, schedule: Q04DX003 (ip), vehicle: saline with Tween-80): 90 % of control

CS(=O)(=O)Oc1ccccc1OS(C)(=O)=O
T/C [19]: 91 % of control
T/C (dose: 200.0 mg/kg/injection, schedule: Q04DX002 (ip), vehicle: saline with Tween-80): 107 % of control

Cc1cc(C(=O)Nc2ccc(C3=NCCN3)cc2)ccc1C(=O)Nc1ccc(C2=NCCN2)cc1
T/C (dose: 3.75 mg/kg/injection, schedule: Q01DX Z (ip), vehicle: saline): 98 % of control
T/C (dose: 7.5 mg/kg/injection, schedule: Q01DX Z (ip), vehicle: saline): 102 % of control
T/C (dose: 15.0 mg/kg/injection, schedule: Q01DX Z (ip), vehicle: saline): 119 % of control
T/C (dose: 60.0 mg/kg/injection, schedule: Q01DX Z (ip), vehicle: saline): 196 % of control
T/C (dose: 120.0 mg/kg/injection, schedule: Q01DX Z (ip), vehicle: saline): 157 % of control
T/C (dose: 240.0 mg/kg/injection, schedule: Q01DX Z (ip), vehicle: saline): 175 % of control

S=C(Nc1ccccc1)NC1CCCCCC1
T/C (dose: 50.0 mg/kg/injection, schedule: Q01DX009 (ip), vehicle: saline with Tween-80): 98 % of control and 92 % of control
T/C [20]: 94 % of control
T/C [16]: 97 % of control
T/C [21]: 90 % of control
T/C [17]: 94 % of control

CCOC(C(=O)OC1CCN(C)CC1)(c1ccccc1)c1ccccc1
T/C (dose: 25.0 mg/kg/injection, schedule: Q04DX003 (ip), vehicle: saline): 97 % of control
T/C (dose: 50.0 mg/kg/injection, schedule: Q04DX003 (ip), vehicle: saline): 96 % of control
T/C [10]: 93 % of control
T/C [16]: 97 % of control

N#CCCN(C(=O)COc1ccc(Cl)cc1Cl)C1CCCCC1
T/C [2]: 95 % of control
T/C [3]: 95 % of control
T/C [4]: 104 % of control
T/C [5]: 100 % of control
T/C [6]: 95 % of control

CCCCCCC1CCC(CCCCCCCC(=O)N2CCN(C)CC2)C(C/C=C/CCCCCCCC(=O)N2CCN(C)CC2)C1CCCCC (configuration not stated)
T/C [14]: 94 % of control
T/C [15]: 103 % of control
T/C (dose: 300.0 mg/kg/injection, schedule: Q01DX001 (ip), vehicle: saline): 95 % of control

Cc1cc(C)c(-c2c(Br)c(OC(=O)c3ccc([N+](=O)[O-])cc3)c(-c3c(C)cc(C)c(Br)c3C)c(Br)c2OC(=O)c2ccc([N+](=O)[O-])cc2)c(C)c1Br
T/C [2]: 101 % of control
T/C [3]: 104 % of control
T/C [4]: 97 % of control
T/C [5]: 96 % of control
T/C [6]: 100 % of control
T/C [7]: 96 % of control

COc1cc2c(c(OC)c1OC)CCc1cnoc1-2
T/C (dose: 100.0 mg/kg/injection, schedule: Q04DX002 (ip), vehicle: Klucel (hydroxypropylcellulose) (HPC)): 97 % of control
T/C (dose: 200.0 mg/kg/injection, schedule: Q04DX002 (ip), vehicle: Klucel (hydroxypropylcellulose) (HPC)): 112 % of control
T/C (dose: 400.0 mg/kg/injection, schedule: Q04DX002 (ip), vehicle: Klucel (hydroxypropylcellulose) (HPC)): 91 % of control

CN1C(CSCC(F)(F)F)Nc2cc(Cl)c(S(N)(=O)=O)cc2S1(=O)=O (configuration not stated)
T/C (dose: 100.0 mg/kg/injection, schedule: Q01DX001 (ip), vehicle: carboxymethylcellulose (CMC)): 108 % of control
T/C (dose: 200.0 mg/kg/injection, schedule: Q01DX001 (ip), vehicle: carboxymethylcellulose (CMC)): 106 % of control
T/C (dose: 400.0 mg/kg/injection, schedule: Q01DX001 (ip), vehicle: carboxymethylcellulose (CMC)): 103 % of control

CCOC(=O)NC(NC(=O)OCC)NC(=O)OCC
T/C [12]: 102 % of control
T/C [13]: 104 % of control
T/C (dose: 400.0 mg/kg/injection, schedule: Q01DX009 (ip), vehicle: saline): 104 % of control

c1ccc(NC2=NCCO2)cc1
T/C (dose: 25.0 mg/kg/injection, schedule: Q04DX002 (ip), vehicle: saline with Tween-80): 107 % of control
T/C (dose: 50.0 mg/kg/injection, schedule: Q04DX002 (ip), vehicle: saline with Tween-80): 90 % of control
T/C [19]: 96 % of control

CC(C)=C(Br)CC[C@@H](C)[C@H]1CC[C@@]2(C)C3=C(CC[C@]12C)[C@@]1(C)CC[C@H](O)C(C)(C)[C@@H]1CC3
T/C (dose: 62.0 mg/kg/injection, schedule: Q01DX Z (sc), vehicle: steriod suspending solution): 102 % of control
T/C (dose: 125.0 mg/kg/injection, schedule: Q01DX Z (sc), vehicle: steriod suspending solution): 95 % of control
T/C (dose: 250.0 mg/kg/injection, schedule: Q01DX Z (sc), vehicle: steriod suspending solution): 95 % of control
T/C (dose: 500.0 mg/kg/injection, schedule: Q01DX Z (sc), vehicle: steriod suspending solution): 95 % of control

COCC(=O)C(C(C)=O)C(c1ccncc1)C(C(C)=O)C(=O)COC (configuration not stated)
T/C [20]: 98 % of control
T/C [21]: 97 % of control
T/C (dose: 400.0 mg/kg/injection, schedule: Q01DX009 (ip), vehicle: saline with Tween-80): 93 % of control

CC1=C(C)C23OCC(CO2)CC3=C(C)C1=O
T/C (dose: 100.0 mg/kg/injection, schedule: Q01DX001 (ip), vehicle: saline with Tween-80): 93 % of control
T/C (dose: 200.0 mg/kg/injection, schedule: Q01DX001 (ip), vehicle: saline with Tween-80): 122 % of control
T/C (dose: 400.0 mg/kg/injection, schedule: Q01DX001 (ip), vehicle: saline with Tween-80): 104 % of control
